Test: molar heat capacity at constant pressure; xn = mol fraction of the nth substance listed
Details: 101 kPa, Liquid, Large sample (1 g) DSC

O=S1(=O)CCCC1 [sulfolane] + O
molar heat capacity at constant pressure [J/K/mol]
Details	x1 = 0.0999	x1 = 0.1998	x1 = 0.2987	x1 = 0.3995	x1 = 0.4945	x1 = 0.5987	x1 = 0.6984	x1 = 0.7904	x1 = 0.8865	x1 = 1
303.15 K	87	100	112	124	135	145	155	164	173	182
308.15 K	88	100	113	125	136	147	156	166	175	184
313.15 K	88	101	114	126	137	148	157	167	176	185
318.15 K	88	102	114	127	138	149	159	168	177	186
323.15 K	89	102	115	128	139	150	160	170	179	188
328.15 K	89	103	116	129	141	152	162	172	181	189
333.15 K	89	104	117	130	142	153	164	173	183	191
338.15 K	90	104	118	131	143	155	165	175	184	193
343.15 K	90	105	119	132	144	156	167	177	186	194
348.15 K	91	106	120	133	146	158	169	179	188	197
353.15 K	91	107	121	135	148	160	171	181	191	199

O=CN1CCOCC1 [N-formylmorpholine] + O
molar heat capacity at constant pressure [J/K/mol]
Details	x1 = 0.0997	x1 = 0.1998	x1 = 0.2992	x1 = 0.3993	x1 = 0.4975	x1 = 0.5978	x1 = 0.6954	x1 = 0.7988	x1 = 0.8946	x1 = 1
303.15 K	86	98	111	123	134	145	154	164	174	185
308.15 K	86	99	111	124	135	146	156	166	176	186
313.15 K	87	100	113	125	137	148	158	168	178	188
318.15 K	87	100	114	126	138	149	159	169	179	189
323.15 K	88	101	115	127	140	150	161	171	181	191
328.15 K	88	102	116	129	141	152	162	173	183	193
333.15 K	89	103	117	130	142	153	164	174	184	195
338.15 K	90	104	118	131	144	155	166	176	186	197
343.15 K	91	106	120	133	146	157	168	178	189	200
348.15 K	91	107	121	135	147	158	169	180	190	201
353.15 K	92	107	122	135	148	159	170	181	191	202

From the NIST ThermoML archive (doi:10.1021/je800999s)
